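Five concentrations, 48 hours, 96-well plates. Abbreviation: GI50, concentration required for 50% inhibition of growth. TGI marks complete inhibition of growth.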 Where a SMILES comes first, the peptide text is derived from it. [ ]: non-standard residue; d: D form. The star is where a group is joined. NMeF = CN[CH](Cc1ccccc1)C(=O)O; NMeV = CN[CH](C(=O)O)C(C)C; Boc = CC(C)(C)OC(=O)*; OBn = c1ccc(CO*)cc1
Key:
Assay in all cases: DTP human tumour cell line panel, 48 h
K-562 leukemia = tested on: K-562 leukemia
NCI-H522 lung = tested on: NCI-H522 lung
NCI-H23 lung = tested on: NCI-H23 lung
OVCAR-5 ovarian = tested on: OVCAR-5 ovarian
U251 CNS = tested on: U251 CNS
SF-268 CNS = tested on: SF-268 CNS
LOX IMVI melanoma = tested on: LOX IMVI melanoma
BT-549 breast = tested on: BT-549 breast
UACC-62 melanoma = tested on: UACC-62 melanoma
RXF 393 renal = tested on: RXF 393 renal

Compound	GI50 (K-562 leukemia)	TGI (K-562 leukemia)	GI50 (NCI-H522 lung)	TGI (NCI-H522 lung)	GI50 (NCI-H23 lung)	TGI (NCI-H23 lung)	GI50 (OVCAR-5 ovarian)	TGI (OVCAR-5 ovarian)	GI50 (U251 CNS)	TGI (U251 CNS)	GI50 (SF-268 CNS)	TGI (SF-268 CNS)	GI50 (LOX IMVI melanoma)	TGI (LOX IMVI melanoma)	GI50 (BT-549 breast)	TGI (BT-549 breast)	GI50 (UACC-62 melanoma)	TGI (UACC-62 melanoma)	TGI (RXF 393 renal)	GI50 (RXF 393 renal)
COc1cc(/C=C/C(=O)c2c(C)n([O-])c3cc(C)c(C)cc3[n+]2=O)cc(OC)c1OC	18.7 µM	> 100 µM	10.9 µM	28.9 µM	16.2 µM	41.9 µM	17.6 µM	47.1 µM	12 µM	25.8 µM	12.5 µM	32.3 µM	11.9 µM	29.2 µM	11.8 µM	30.8 µM	15.5 µM	37.9 µM		
COc1cc(NCC(C#N)C#N)ccc1N=Nc1ccc([N+](=O)[O-])cc1		> 100 µM		> 100 µM		> 100 µM		> 100 µM		> 100 µM		> 100 µM		> 100 µM				> 100 µM	> 100 µM	
NNC(=O)CC(=O)Nc1ccccc1F		> 100 µM		> 100 µM		> 100 µM		> 100 µM		> 100 µM		> 100 µM		> 100 µM				> 100 µM	> 100 µM	
COc1ccc2nc(-c3ccccc3)cc(Nc3ccc(/C(C)=N/O)cc3)c2c1	2.2 µM	> 100 µM	14.9 µM	> 24.6 µM	2.51 µM	> 20.9 µM	5.5 µM	> 100 µM	6.7 µM	> 67.1 µM	3.39 µM	> 23 µM			2.07 µM	4.76 µM	2.1 µM	4.65 µM		
CC1=C(C(=O)Nc2ccccc2C)C(c2ccc(N(C)C)cc2)C(C(=O)Nc2ccccc2C)=C(C)N1		> 100 µM		> 100 µM		> 100 µM		> 100 µM		> 100 µM		> 100 µM		> 100 µM				> 100 µM	> 100 µM	
COc1ccc2oc(-c3ccncc3)cc(=O)c2c1		> 100 µM				> 100 µM		> 100 µM		> 100 µM		> 100 µM		> 100 µM				> 100 µM	> 100 µM	
CCC[CH2][Sn]1([CH2]CCC)[O]C(=O)C[S]1	0.405 µM	3.59 µM	0.212 µM	0.814 µM	1.28 µM	2.64 µM	2.09 µM	5.27 µM	1.33 µM	2.65 µM	1.67 µM	4.83 µM	1.46 µM	3.09 µM			1.35 µM	2.89 µM	1.88 µM	0.573 µM
N/C(=N\OC(=O)NC(Cl)=C(Cl)Cl)c1cc(C(F)(F)F)cc(C(F)(F)F)c1						> 100 µM		38.3 µM		31.3 µM		45.6 µM		31.8 µM		41.2 µM				
O=C(/C=C/c1cccs1)c1ccsc1		89.8 µM				57.6 µM		> 100 µM		> 10 µM		> 100 µM		35.1 µM				38.5 µM		
CC(C)C(NC(=O)OC(C)(C)C)C(=O)N(C)C(Cc1ccccc1)C(=O)N(C)C(C(=O)N(C)C(C(=O)OCc1ccccc1)C(C)C)C(C)C (configuration not stated) (Boc-V[NMeF][NMeV][NMeV]-OBn; configuration not given here)		> 100 µM		> 100 µM		> 100 µM				> 100 µM		> 100 µM		> 100 µM				> 100 µM		

Reference: PubChem BioAssay (NCI)
